Source: patent US11426441B2, “Composition comprising protein phosphatase 1 inhibitory peptide for treating vascular diseases” (BethphaGen Inc., priority 2016, dated 2022)

Tests used:
[1] = system: rat aortic smooth muscle cells (RASMCs); assay: RASMC proliferation (PCNA immunostaining, EZ-CyTox cell viability assay); assay type: cell-based; details: RASMCs, synthetic conditions, calpain inhibitor
Description: (§1) The rat aortic smooth muscle cells (RASMCs) were isolated from the medial layer of the thoracic aorta derived from male Sprague-Dawley rats (body weight, 180-200 g) by an enzymatic reaction with collagenase (50 U/mL, Worthington) and pancreatic elastase (0.25 mg/mL, Sigma-Aldrich) for 4 hours at 37. The cells were collected and resuspended in DMEM containing 20% (v/v) fetal bovine serum. The resuspension was then plated on collagen I (Sigma-Aldrich)-coated glass coverslips and incubated at 37 in an atmosphere of 5% (v/v) CO2 and 95% (v/v) air. Human coronary smooth muscle cells (HCSMCs), pulmonary arterial endothelial cells (PAECs), and pulmonary arterial smooth muscle cells (PASMCs) were purchased from Lonza and cultured in EBM or SmBM (Lonza) supplemented with 0.5 mg/mL hEGF, […], 1 mg/mL hFGF, […] gentamicin/amphotericin-B, and 5% fetal bovine serum. All the cells were cultured at 37 in 5% (v/v) CO2 and 95% (v/v) air. RASMCs and HCSMCs were, respectively, plated at the densities of 1×10^4 cells/cm^2 and 1×10^5 cells/cm^2 for immunostaining and western blotting experiments. For RASMC and PASMC cell proliferation experiments, these cells were cultured in fetal bovine serum-free media for 3 days, and then proliferation was induced by serum addition.
Rat aortic smooth muscle cells (RASMCs) were fixed in 4% (w/v) paraformaldehyde at room temperature for 10 min, washed with PBS, and then transmitted with 0.1% (v/v) Triton X-100 in PBS for 40 min. After washing and blocking with 3% (w/v) BSA in PBS, the cells were incubated overnight at room temperature with antibodies against SERCA2a (1:250), SERCA2b (1:250), and PCNA (1:50). On the following day, the cells were washed with PBS and incubated with anti-rabbit and anti-mouse IgG conjugated to Alexa Fluor 488 and 594, respectively, for 1 hour at room temperature. The cells were treated with FluoroGuard antifade reagent (Bio-Rad, Hercules, Calif., USA), and the coverslips were examined under a fluorescent microscope. […]

SERCA2a [2] = assay: SERCA2a level and stability in RASMCs (immunostaining, western blotting); assay type: cell-based, rat; details: synthetic conditions, calpain inhibitor
Description: Rat aortic smooth muscle cells (RASMCs) were fixed in 4% (w/v) paraformaldehyde at room temperature for 10 min, washed with PBS, and then transmitted with 0.1% (v/v) Triton X-100 in PBS for 40 min. After washing and blocking with 3% (w/v) BSA in PBS, the cells were incubated overnight at room temperature with antibodies against SERCA2a (1:250), SERCA2b (1:250), and PCNA (1:50). On the following day, the cells were washed with PBS and incubated with anti-rabbit and anti-mouse IgG conjugated to Alexa Fluor 488 and 594, respectively, for 1 hour at room temperature. The cells were treated with FluoroGuard antifade reagent (Bio-Rad, Hercules, Calif., USA), and the coverslips were examined under a fluorescent microscope.
(§2) Vascular smooth muscle cells (VSMCs) were homogenized in a minimal volume of 50 mM Tris-HCl, pH 7.4, supplemented with a broad-spectrum protease inhibitor cocktail (Calbiochem). The proteins were separated by SDS-PAGE and then transferred to polyvinylidene fluoride membranes (Schleicher & Schuell). After blocking with 5% (w/v) non-fat milk for 1 hour and washing with TBST, the membranes were incubated with antibodies against SERCA2a, SERCA2b (21st century biochemical), PCNA (abcam), GAPDH (Sigma-Aldrich), phospho-eNOS, eNOS, phospho-eIF2α, eIF2α (cell signaling), Vimentin, α-SMA, BMPR2 (Santa cruz), phospho-Akt, Akt (cell signaling), phospho-phospholamban (Merck), and Phospholamban (cell signaling). The membranes were then incubated with horseradish peroxidase-conjugated secondary antibodies (Jackson ImmunoResearch, West Grove, Pa., USA) and developed using a chemiluminescent substrate (Dogen). The blots were scanned and quantified using LAS software.
RASMCs were cultured in DMEM supplemented with 0.1% (v/v) FBS (Contractile) or in DMEM supplemented with 10% (v/v) FBS (Synthetic) in the presence of 3 μM control or ψPLB-SE peptide. Cycloheximide (Sigma) was added to media to a final concentration of 5 μg/ml. Cells were harvested after 0, 3, and 5 days of incubation and their protein extracts were subjected to western blotting.

SERCA2a [3] = assay: A23187-induced SERCA2a degradation in HCSMCs; assay type: cell-based, human
Description: (§3) FIGS. 4a, 4b, 4c and 4d. (4a-4c) HCSMCs were pretreated with 3 μM ψPLB-SE and 15 μM MDL28170 for 1 hour, and then treated with 50 μM A23187 for 2 hours. (4a) Immunostaining was performed with antibodies against SERCA2a and SERCA2b (green). Nuclei were stained with Hoechst (blue). Representative merged images are shown. Scale bar, 50 μm. (4b) Western blot analysis was performed with cell extracts. Data are expressed as the means±SD (n=3-4; *, P<0.05). (4c) Baseline Ca^2+ concentration was measured by lonOptix calcium imaging system. (4d) RASMC were treated with ψPLB-SE or control peptide under the same conditions as described for FIG. 1B. The baseline Ca^2+ concentration was measured by lonOptix calcium imaging system (*, P<0.05).
as §1, with “For RASMC and PASMC cell proliferation experiments, these cells were cultured in fetal bovine serum-free media for 3 days, and then proliferation was induced by serum addition.” left out
Vascular smooth muscle cells (VSMCs) were homogenized in a minimal volume of 50 mM Tris-HCl, pH 7.4, supplemented with a broad-spectrum protease inhibitor cocktail (Calbiochem). […] The blots were scanned and quantified using LAS software.

cytosolic Ca^2+ level = assay: Intracellular Ca2+ measurement in HCSMCs; assay type: cell-based, human
Description: as §3
The intracellular Ca^2+ level was measured in VSMCs by loading cells with 0.5 μM Fura2-AM (Molecular Probes, Eugene Oreg., USA), a Ca^2+-sensitive indicator, for 15 minutes at 37. The fluorescence was recorded using the lonOptix calcium imaging system. VSMCs were stimulated by the exposure to light emitted by a 75 W halogen lamp through either a 340 nm or 380 nm filter. The fluorescent emissions were detected between 480 nm and 520 nm by a photomultiplier tube after an initial illumination at 340 nm for 0.5 second and then at 380 nm during recording. The 340 nm excitation scan was repeated at the end of the protocol, and qualitative changes in the intracellular Ca^2+ level were inferred from the ratio of the Fura2 fluorescent intensity at both wavelengths.

eNOS and Akt = eNOS and Akt phosphorylation in PAECs (western blotting); assay type: cell-based; details: 100 nM okadaic acid
Description: FIGS. 16a, 16b and 16c. (16a-16b) PAECs were treated with 3 μM ψPLB-SE for 1 hour, and protein expression was quantitatively analyzed through western blotting using antibodies against Phospho-eNOS (ser1177), total eNOS, phospho-Akt (Ser473, Thr308), total Akt, and GAPDH. (16c) The pulmonary tissue lysate was subjected to immunoprecipitation using PP1 antibody to investigate the interactions of PP1 with eNOS and Akt depending on the presence or absence of the treatment with ψPLB-SE using respective antibodies therefor.
FIGS. 17a, 17b and 17c. (17a) PAECs were treated with 50 μM LY294002, a PI3K inhibitor, for 24 hours, and then treated with 3 μM ψPLB-SE for 1 hour. Protein expression was quantitatively analyzed through western blotting using antibodies against Phospho-eNOS (ser1177), total eNOS, phospho-Akt (Ser473, Thr308), total Akt, and GAPDH. (17b) PAECs were treated with 10 μM inhibitor IV, an Akt inhibitor, for 2 hours, and then treated with 3 μM ψPLB-SE for 1 hour. Protein expression was quantitatively analyzed through western blotting using antibodies against total eNOS and GAPDH. (17c) PAECs were treated with 100 nM OA, a PP1 inhibitor, for 24 hours, and then treated with 3 μM ψPLB-SE for 1 hour. Protein expression was quantitatively analyzed through western blotting using antibodies against Phospho-eNOS (ser1177), total eNOS, phospho-Akt (Ser473, Thr308), total Akt, and GAPDH.
ψPLB-SE (RAE16TIEMPQ; SEQ ID NO: 2) was derived from the PLB protein sequence surrounding the Ser16 phosphorylation site. To facilitate uptake into cells, the peptide was conjugated to the cell penetrating peptide dNP2 ([…]; SEQ ID NO: 21) or TAT (YGRKKRRQRRR; SEQ ID NO: 22). The peptides used in the present invention were PLB-SE (RAETIEMPQ; SEQ ID NO: 2) and control peptide (RASTIEMPQ; SEQ ID NO: 23). PLB-SE and cell penetrating peptide were connected by a linker peptide (GGG; SEQ ID NO: 24) The peptides (purity of 95% or higher, AnyGen, Gwangju, Korea) was resuspended in double-distilled water or physiological saline at a stock concentration of 3 mM (cells), 2.5 mg/ml (rats), or 500 μg/ml (mice). The rats were treated with 1 mg/kg peptides and mice were treated with 2 mg/kg peptides. The rat aortic smooth muscle cells (RASMCs), human coronary smooth muscle cells (HCSMCs), pulmonary arterial endothelial cells (PAECs), and pulmonary arterial smooth muscle cells (PASMCs) were treated with the peptides at a final concentration of 3 μM for 1 hour. The PI3K inhibitor LY294002 (Millipore, USA), the Akt inhibitor Inhibitor IV (Calbiochem, USA), and the PP1 inhibitor okadaic acid (Sigma Aldrich, USA), used in the experiments using pulmonary arterial endothelial cells (PAECs), were purchased. For the monocrotaline aqueous solution, the monocrotaline powder (Sigma Aldrich, USA) was dissolved in a small amount of a 1 M hydrochloric acid solution (HCL), diluted with sterilized distilled water, and adjusted to pH 7.35 by addition of sodium hydroxide (NaOH). The animals were bred and observed in the same conditions as in the control group during the experiment periods. In addition, the calcium ionophore A23187 and the calpain I and II inhibitors MDL28170 and […] were purchased from Sigma-Aldrich (St. Louis, Mo., USA).
as §2, with “The membranes were then incubated with horseradish peroxidase-conjugated secondary antibodies (Jackson ImmunoResearch, West Grove, Pa., USA) and developed using a chemiluminescent substrate (Dogen). The blots were scanned and quantified using LAS software.” left out

[4] = HCSMCs pretreated 1 hour with 3 μM ψPLB-SE or 15 μM MDL28170, then 50 μM A23187 2 hours
[5] = HCSMCs, 50 μM A23187 for 2 hours

Molecule: MDL28170 [reference compound]
- PCNA level [1]: decreased
- degradation of SERCA2a (immunostaining) (SERCA2a [2]): inhibited
- degradation of SERCA2a (western blotting) (SERCA2a [2]): protective effect
- A23187 (Ca^2+)-dependent degradation of SERCA2a (SERCA2a [3]; [4]): completely blocked
- elevation of the cytosolic Ca^2+ level by A23187 (cytosolic Ca^2+ level; [4]): not

Molecule: C=C1[C@@H](O)[C@@H]2O[C@]3(CC[C@H](/C=C/[C@@H](C)[C@@H]4CC(C)=C[C@@]5(O[C@H](C[C@@](C)(O)C(=O)O)CC[C@H]5O)O4)O3)CC[C@H]2O[C@@H]1[C@@H](O)C[C@H](C)[C@H]1O[C@@]2(CCCCO2)CC[C@H]1C [okadaic acid, reference compound]
- phosphorylation of Akt and eNOS (eNOS and Akt): increased

Molecule: CNc1ccc2oc(C[C@H]3O[C@@]4(CC[C@H]3C)O[C@H]([C@H](C)C(=O)c3ccc[nH]3)[C@H](C)C[C@H]4C)nc2c1C(=O)O [A23187]
- degradation of SERCA2a (SERCA2a [3]; [5]): evoked the degradation
- cytosolic Ca^2+ level (cytosolic Ca^2+ level; [5]): elevation
